“And” between values parts separate entries of the source, which are not always exact repeats. Identical values can stand only once.
Legend:
[1] = tested on: HT29 colon tumor xenografts; experiment: SC HT29 colorectal tumor xenograft in nude NCr mice; type: in vivo, mouse; conditions: LT1009 50 mg/kg ip q2d; Avastin 20 mg/kg iv q4d; 5-FU 75 mg/kg ip q4d
Experimental: Nude mice were implanted sc near the right flank with one fragment per mouse of HT29 tumor from an in vivo passage. All treatments were initiated the day when 60 mice in each experiment established tumors ranging in size from approximately 100 to 200 mm^3. There were ten mice per treatment group. […] 75 mg/kg 5-FU and 20 mg/kg Avastin were administered ip and iv at a dosage of 75 mg/kg/dose and 20 mg/kg/dose, respectively, q4d, injected in a volume of 0.1 mL/10 g body weight.
(§1) Animals were observed daily for mortality. Tumor dimensions and body weights were collected twice weekly starting with the first day of treatment and including the day of study termination. When the median tumor in the vehicle-treated control group in each study reached approximately 4,000 mg, the study was terminated. Tumors from each animal were harvested, wet weights were recorded, and tumors were processed for determination of MVD by CD-31 staining. Tumor weights (mg) were calculated using the equation for an ellipsoid sphere (l×w^2)/2=mm^3, where l and w refer to the larger and smaller dimensions collected at each measurement and assuming unit density (1 mm^3=1 mg).

[2] = tested on: COLO205 colorectal tumor xenograft; experiment: SC COLO205 colorectal tumor xenograft in nude NCr mice; type: in vivo, mouse; conditions: LT1009 50 mg/kg ip q3d; Avastin 40 mg/kg iv q7d; Paclitaxel 15 mg/kg iv q1dx5
Experimental: Nude mice were implanted sc near the right flank with one fragment per mouse of COLO 205 tumor from an in vivo passage. All treatments were initiated the day when 60 mice in each experiment established tumors ranging in size from approximately 100 to 200 mm3. […] Avastin was administered iv at a dosage of 40 mg/kg/dose on a q7d schedule, injected in a volume of 0.1 mL/20 g body weight. Paclitaxel (positive control), was administered iv at a dosage of 15 mg/kg/dose on a q1d×5 schedule, injected in a volume of 0.1 mL/10 g body weight.
as §1, with “recorded,” for “recorded, and”, “microvascular densities (MVD)” for “MVD”, “mm3=1” for “mm^3=1”

[3] = tested on: DU145 prostate tumor xenograft; experiment: SC DU145 prostate tumor xenograft in nude NCr mice; type: in vivo, mouse; conditions: LT1009 50 mg/kg ip q2d; Avastin 20 mg/kg q4d; Paclitaxel 7.5 mg/kg q1dx5
Experimental: Nude mice were implanted sc near the right flank with one fragment per mouse of DU145 tumor from an in vivo passage. All treatments were initiated the day when 60 mice in each experiment established tumors ranging in size from approximately 100 to 200 mm^3. […] Paclitaxel and Avastin were administered iv and ip at a dosage of 7.5 mg/kg/dose and 20 mg/kg/dose, q1d×5 and q4d, respectively, injected in a volume of 0.1 mL/10 g body weight.
During the course of the study tumor growth was monitored by measuring the sc tumors on three axes and calculating the volume. At the end of the study final tumor weights and volumes were determined and then the mice were sacrificed, the tumors harvested. Microvascular densities (MVD) of the tumors were then determined by CD-31 staining.

[4] = tested on: peripheral lymphocyte counts; conditions: single oral dose; cited from earlier work
[5] = tested on: human conjunctiva fibroblasts; experiment: alpha-SMA expression in conjunctiva fibroblasts; type: cell-based; conditions: 10 uM S1P (only at this concentration)
Source text: (§2) In many of these disorders, circulating growth factors and chemokines promote the transformation of normal ocular cells into fibrocontractile, scar tissue-producing cells that have been termed “myofibroblasts”. Normally, myofibroblasts are responsible for tissue repair as part of the wound healing response following injury. However altered number and function of myofibroblasts are implicated in diseases characterized by pathological scar tissue formation in the liver, skin, lung, kidney, heart and eyes. In the eye, transformation of retinal pigmented epithelial (RPE) cells to a myofibroblast phenotype is linked to formation of fibro-contractile membranes which cause retinal detachment and subsequent vision impairment. In addition, myofibroblast transformation of ocular fibroblasts can result in abnormal scar tissue production after eye injury leading to subsequent vision loss. Although many of the circulating protein factors in the eye that promote myofibroblast formation have been identified, nothing is known regarding the role of lysolipids such as S1P in this process. Therefore, we examined the effects of S1P on myofibroblast transformation of several human ocular cell lines.
(§3) In these experiments, the ability of S1P to promote α-SMA expression differed in a concentration dependent manner between the retinal pigmented epithelial cells and conjunctiva fibroblasts. […]

[6] = tested on: human retinal pigmented epithelial cells; experiment: alpha-SMA expression in retinal pigmented epithelial cells; type: cell-based
Source text: as §2, §3

[7] = tested on: endothelial cell (EC) infiltration into Matrigel plugs; experiment: In vivo Matrigel plug assay, S1P-supplemented plugs, EC infiltration; design: species or system mouse; conditions: plugs containing S1P
Experimental: Based on in vivo studies showing that S1P increased endothelial capillary growth into subcutaneously implanted Matrigel plugs, we speculated that SPHINGOMAB could reduce de novo BV formation in vivo. To investigate this, we employed the in vivo Matrigel Plug assay for neovascularization. In one set of experiments, Matrigel was supplemented with either […], 0.5 μg/mL bFGF or 1 μg/mL VEGF and then injected […]. into mice (n=4). After 10 days, the mice were heparinized and injected with the fluorescent lectin, Isolectin B4-FITC, which binds to adhesion molecules expressed by vascular EC that form the growing BVs. The plugs were then excised, frozen in OCT, sectioned and viewed for FITC-stained BVs.
Sections of the plugs were then stained with hemotoxyln & eosin for evaluation of EC infiltration (FIG. 6B). The infiltration of ECs is a critical step in neo-vascularization. […] Cell infiltration is presumed to be ECs although we recognize that other cell types such as immune cells may also be stained.

Avastin: anti-angiogenic drug, bevacizumab (Avastin, Genentech)
% Reduction compared to Vehicle-Treated Mice [1]: 30%
% Reduction compared to Vehicle-Treated Mice [2]: 35%
% Reduction compared to Vehicle-Treated Mice [3]: 80% and 79%

CCCCCCCCc1ccc(CCC(N)(CO)CO)cc1 [FTY720]
reduction of peripheral lymphocyte counts [4]: 30-70%

CCCCCCCCCCCCC/C=C/[C@@H](O)[C@@H](N)COP(=O)(O)O [S1P, sphingosine-1-phosphate]
alpha-SMA expression [5]: significant increase
alpha-SMA expression ([6]; 0.001 uM S1P): significant increase
alpha-SMA expression ([6]; 10 uM S1P): decreased to basal levels
increase of EC infiltration vs Matrigel only plugs [7]: 3 fold
